These are literature values, as cited in patent US7981858B1, “Methods of using zinc containing compounds to improve ocular health” (Alcon, Inc., priority 2004, dated 2011).

For data set [1] the following is noted: 80 mg of zinc, versus placebo.
For data set [2] the following is noted: about 200 mg dosage of zinc per day.

On to `[Zn]` [zinc], for which the “retarding macular degeneration changes” value in data set [1] was “significantly better than placebo”. In data set [2], the tolerability entry is “well tolerated”. Also, in data set [2] (anemia attributable to copper deficiency), the side effects result is on record as “potential side effects such as anemia”.
